Measurements published in publication PMC5216877, “Exploring conformational equilibria of a heterodimeric ABC transporter” (eLife, 2017).
Read-outs that look alike come from different tables or passages of the source. Marks after values point to notes of the source that are not given here.

Columns and labels:
TM287/288 E517Q = assay: DEER two-Gaussian fit of IF/OF populations, E-to-Q mutant of TM287/288; set-up: species or system Thermotoga maritima; settings: estimated errors 10%
Method: (§1) All nucleotides and nucleotide analogs used in this study were added at saturating conditions well above their Ki values (Table 2). […] Therefore, the IF/OF fractions detected in the sample reflect the average life time that the nucleotide-bound transporter spends in either conformation. To rank the nucleotides in terms of their ability to support the transition to the OF conformation, we used three representative pairs in the wildtype transporter and the E-to-Q mutant: one in the extracellular region (50^TM287/271^TM287), one in the intracellular region (131^TM288/248^TM288) of the TMDs, and one in the NBDs (460^TM287/363^TM288) for which the distance peaks corresponding to the two states were distinguishable. A two-Gaussian fit of the DEER traces was performed to obtain the area of the corresponding IF and OF distance peaks (Figure 5—source data 1). The rank of nucleotides with respect to increasing fractions of the OF populations (Figure 5A) was: ADP-Mg ≈ AMP-PNP-Mg < ATP-EDTA < ATPγS-Mg < ATP-Mg < ATP-Vi-Mg. The order is similar for the wildtype and E-to-Q mutant transporter. However, the OF state is in general more populated in the E-to-Q mutant, which is best explained by an alteration of the energy profile caused by the mutation. This notion is best appreciated for ATP-EDTA and ATP-Mg, which could trigger an almost complete switch in the molecular ensemble of the E-to-Q mutant (Figure 5B).
(§2) The labeling efficiency of the double cysteine mutants of the transporters solubilized in detergent was measured at 25°C using an X-band Miniscope 400 EPR spectrometer (Magnettech by Freiberg Instrument). Samples were loaded into glass capillaries with the inner diameter of 0.9 mm and spectra were measured with 14 mT field sweep, 0.15 mT modulation amplitude, 2.5 mW microwave power. The calculated spin labeling efficiencies of the twelve mutants ranged between 70–90% (the second integral of the EPR spectra was calculated with the software available at spintoolbox.com). The high degree of labeling is correlated with the 0.3–0.4 modulation depths of all Q-band DEER traces presented. For DEER measurements, 10% v/v D8- glycerol was added prior to snap freezing. The range of final protein concentrations was 12 to 41 µM. 40 µL of sample were loaded in quartz tubes with 3 mm outer diameter. If not stated differently, samples were incubated at 25°C for 10 min (TM287/288 and MsbA) or 15 min (BmrCD) and snap frozen in liquid nitrogen. To study the effect of high physiological temperatures on the frozen dynamics of the transporter, samples were loaded in the quartz tubes, incubated for 3 min at 80°C on a heat block and snap frozen in a mixture of isopentane and liquid nitrogen to minimize the freezing time. […] The nucleotide analogs AMP-PNP-Mg and ATPγS-Mg (2.5 mM) were also prepared in the presence of 2.5 mM MgCl2. In case of ADP-Mg, 2.5 mM ADP and 2.5 mM MgCl2 were added.
(§3) Double electron-electron resonance (DEER) measurements were performed at 50 K on a Bruker ELEXSYS E580Q-AWG (arbitrary wave generator) dedicated pulse Q-band spectrometer equipped with a 150 W TWT amplifier. A 4-pulse DEER sequence with rectangular, non-selective observer and pump pulses of 14 or 16 ns length (depending on the available B1 at the sample) with 100 MHz frequency separation was used ([Polyhach et al., 2012]). Due to the coherent nature of the AWG generated pulses, a four-step phase cycling (0 – π/2 - π – 3/2π) of the pump π pulse was performed to remove unwanted effects of running echoes from the DEER trace. The evaluation of the DEER data was performed using DeerAnalysis2015 ([Jeschke et al., 2006]). The background of the primary DEER traces was corrected using stretched exponential functions with homogeneous dimensions of 1.5 to 3 for different samples. A model-free Tikhonov regularization was used to extract distance distributions from the background corrected form factors. […]

BmrCD [1] = molecular target: T1, BmrCD (Bacillus subtilis, UniProt O07549+O07550, C154A/C256A/C351A); assay: Inhibition of ATPase activity of BmrCD by nucleotide analogs; assay type: biochemical; settings: BmrCD, 25°C
T1 construct: made in house; host or cells: E. coli MC1061
Method: (§4) in which f corresponds to the ATPase activity at the respective inhibitor concentration divided by the ATPase activity in the absence of inhibitor normalized to 100%, y0 corresponds to the residual activity at infinite inhibitor concentration, a corresponds to the maximal degree of inhibition (a+y0=100%) and x corresponds to the inhibitor concentration.
(§5) Ki values were calculated according to the formula Ki=IC50/(1+[S]/Km)
(§6) IC50 and Km values were obtained from data fitting as outlined above.
(§7) Standard errors for the Ki values were calculated by error propagation: σKi = (Km/Km+[S])^2 σIC502+ ([S]IC50/(Km+[S])^2)^2 σKm2
(§8) in which the σIC50 and σKm are standard errors obtained from data fitting in SigmaPlot and σKi is the standard error for Ki .

TM287/288 [2] = molecular target: T2, TM287/288 (Thermotoga maritima, UniProt Q9WYC3+Q9WYC4, C28S/C496S/C519S/C558S/C73S); assay: ATPase activity of detergent-purified wildtype TM287/288 (molybdate/malachite green phosphate detection); assay type: biochemical; settings: for Km: read-out: Km for ATP
TM287/288 [3] = assay: DEER two-Gaussian fit of IF/OF populations, wildtype TM287/288; set-up: species or system Thermotoga maritima; settings: estimated errors 10%
Method: as §1, §2, §3

MsbA [4] = test system: MsbA; set-up: method as in Moeller et al., 2015; settings: single particle EM; ref Moeller et al., 2015; cited from earlier work
TM287/288 [5] = molecular target: T2, TM287/288; assay: Inhibition of ATPase activity of TM287/288 by vanadate and nucleotides; assay type: biochemical; settings: for IC50: 500 µM ATP, read-out: IC50; for Ki: calculated from IC50 and Km, read-out: Ki
Method: Nucleotide binding and hydrolysis follow a complex mechanism in heterodimeric ABC exporters, due to the existence of a degenerate and a consensus site in the NBDs. […] Using the relation IC50=Ki(1+[S]/Km), Ki values for the respective nucleotides were determined (Table 2). […] It is well established that ATPγS is slowly hydrolyzed by ATPases, as for example the F1Fo-ATPase ([Turina and Capaldi, 1994]). […] It is reasonable to assume that TM287/288 is as well capable of slow ATPγS hydrolysis. In addition, we tested whether TM287/288 hydrolyzes AMP-PNP. In contrast to ATPγS, hydrolysis of AMP-PNP releases Pi, which can be detected by the molybdate/malachite green method.
as §4, §5, §6, §7, §8

Spin-labeled TM287/288 = assay: ATPase activity of spin-labeled TM287/288 mutants in detergent; settings: 50°C, relative to internal wildtype control
TM287/288_E517Q^TM288 = assay: Residual ATPase activity of E-to-Q mutant of TM287/288 in detergent; assay type: biochemical, Thermotoga maritima; settings: E-to-Q mutant of TM287/288, 25°C
Method: (§9) Incubation with buffers containing the same nucleotide concentration without protein served for background subtraction in these assays.

MsbA [6] = assay: ATPase activity of detergent-purified MsbA; settings: ATP-Mg, 30°C
BmrCD [7] = molecular target: T1, BmrCD; assay: ATPase activity of detergent-purified wildtype BmrCD; assay type: biochemical; settings: 25°C
BmrCD_E592Q^BmrD = molecular target: T3, BmrCD_E592Q^BmrD (Bacillus subtilis, UniProt O07549+O07550, C154A/C256A/C351A/E592Q); assay: Residual ATPase activity of E-to-Q mutant of BmrCD in detergent; assay type: biochemical; settings: 25°C
T3 construct: made in house; host or cells: E. coli MC1061
Method: as §9

[8] = spin-labeled pair 50^TM287-271^TM287 E517Q
[9] = spin-labeled pair 131^TM288-248^TM288 E517Q
[10] = spin-labeled pair 460^TM287-363^TM288 E517Q
[11] = wildtype TM287/288, AMP-PNP-Mg as nucleotide, 25°C [sic], detergent
[12] = spin-labeled pair 50^TM287-271^TM287 WT
[13] = spin-labeled pair 131^TM288-248^TM288 WT
[14] = spin-labeled pair 460^TM287-363^TM288 WT
[15] = wildtype BmrCD, ATP-Mg, detergent
[16] = wildtype TM287/288, ATP-Mg, 25°C, detergent
[17] = wildtype TM287/288, ATP-Mg, 50°C, detergent
[18] = BmrCD E592Q^BmrD, ATP-Mg, detergent

T3 sequence (O07550 whole entry): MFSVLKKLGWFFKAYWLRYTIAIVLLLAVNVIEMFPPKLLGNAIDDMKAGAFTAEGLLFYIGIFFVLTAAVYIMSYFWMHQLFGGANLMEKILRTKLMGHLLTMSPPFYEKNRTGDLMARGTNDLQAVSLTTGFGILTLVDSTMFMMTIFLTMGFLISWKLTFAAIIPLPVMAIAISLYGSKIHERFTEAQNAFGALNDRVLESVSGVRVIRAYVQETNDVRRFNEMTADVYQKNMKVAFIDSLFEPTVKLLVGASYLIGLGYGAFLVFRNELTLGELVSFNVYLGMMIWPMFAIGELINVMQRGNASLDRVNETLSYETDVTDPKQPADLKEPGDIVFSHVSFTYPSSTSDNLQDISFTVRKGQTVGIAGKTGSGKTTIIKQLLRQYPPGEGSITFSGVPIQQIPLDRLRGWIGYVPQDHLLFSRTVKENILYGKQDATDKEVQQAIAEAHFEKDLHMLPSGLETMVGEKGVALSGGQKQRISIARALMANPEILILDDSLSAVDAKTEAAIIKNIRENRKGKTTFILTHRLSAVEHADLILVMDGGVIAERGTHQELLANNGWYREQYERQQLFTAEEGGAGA
T3 sequence (O07549 whole entry C154A/C256A/C351A/E592Q): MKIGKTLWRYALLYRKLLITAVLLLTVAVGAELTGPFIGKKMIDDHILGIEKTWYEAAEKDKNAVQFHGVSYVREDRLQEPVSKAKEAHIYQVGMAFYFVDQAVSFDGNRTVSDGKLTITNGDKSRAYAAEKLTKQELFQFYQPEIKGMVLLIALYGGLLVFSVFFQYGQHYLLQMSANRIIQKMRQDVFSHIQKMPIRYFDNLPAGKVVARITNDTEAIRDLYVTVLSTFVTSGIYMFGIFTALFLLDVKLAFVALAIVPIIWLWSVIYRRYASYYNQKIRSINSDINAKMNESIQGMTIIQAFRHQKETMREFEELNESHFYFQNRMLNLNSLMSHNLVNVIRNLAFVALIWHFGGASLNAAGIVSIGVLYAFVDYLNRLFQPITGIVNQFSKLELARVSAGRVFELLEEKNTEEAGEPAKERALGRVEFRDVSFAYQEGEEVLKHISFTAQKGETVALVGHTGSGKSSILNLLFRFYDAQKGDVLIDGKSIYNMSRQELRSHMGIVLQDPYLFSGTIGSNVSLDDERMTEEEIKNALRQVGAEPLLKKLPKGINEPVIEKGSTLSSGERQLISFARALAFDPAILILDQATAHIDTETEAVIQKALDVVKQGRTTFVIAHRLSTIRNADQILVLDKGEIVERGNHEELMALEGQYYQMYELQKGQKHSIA
T1 sequence (O07550 whole entry): as the sequence (O07550 whole entry) above
T1 sequence (O07549 whole entry C154A/C256A/C351A): as the sequence (O07549 whole entry C154A/C256A/C351A/E592Q) above, with Q592E counted along it

Nc1ncnc2c1ncn2[C@@H]1O[C@H](COP(=O)(O)OP(=O)(O)NP(=O)(O)O)[C@@H](O)[C@H]1O [AMP-PNP]
IF frac (TM287/288 E517Q; [8]): 64.9%
OF frac (TM287/288 E517Q; [8]): 35.1%
IF frac (TM287/288 E517Q; [9]): 100%
OF frac (TM287/288 E517Q; [9]): 0%
IF frac (TM287/288 E517Q; [10]): 65.8%
OF frac (TM287/288 E517Q; [10]): 34.2%
IC50 (BmrCD [1]; 2500 µM ATP, read-out: IC50): 174 ± 24 µM
Ki (BmrCD [1]; calculated from IC50 and Km, read-out: Ki): 21 ± 3.2 µM
cleavage of AMP-PNP (sensitivity of assay) (TM287/288 [2]; wildtype TM287/288, AMP-PNP as nucleotide): < 0.01 Pi min^−1
ATPase activity (hydrolysis of AMP-PNP) (TM287/288 [2]; [11]): <0.1 nmol Pi/min/mg protein
ATPase activity, % of wildtype (hydrolysis of AMP-PNP) (TM287/288 [2]; [11]): <0.005%
Turnover per transporter (hydrolysis of AMP-PNP) (TM287/288 [2]; [11]): <0.01 min⁻¹
IF frac (TM287/288 [3]; [12]): 85.4%
OF frac (TM287/288 [3]; [12]): 14.6%
IF frac (TM287/288 [3]; [13]): 100%
OF frac (TM287/288 [3]; [13]): 0%
IF frac (TM287/288 [3]; [14]): 90.7%
OF frac (TM287/288 [3]; [14]): 9.3%
fraction of outward-facing MsbA (MsbA [4]): 41%
IC50 (TM287/288 [5]; TM287/288, 25°C): 179 ± 75 µM
Ki (TM287/288 [5]; TM287/288, 25°C): 1.17 ± 0.51 µM
IC50 (TM287/288 [5]; TM287/288, 50°C): 16.1 ± 1.6 µM
Ki (TM287/288 [5]; TM287/288, 50°C): 0.246 ± 0.042 µM

Nc1ncnc2c1ncn2[C@@H]1O[C@H](COP(=O)(O)OP(=O)(O)OP(=O)(O)O)[C@@H](O)[C@H]1O [ATP]
IF frac (TM287/288 E517Q; [8]): 5.79%
OF frac (TM287/288 E517Q; [8]): 94.21%
IF frac (TM287/288 E517Q; [9]): 24.9%
OF frac (TM287/288 E517Q; [9]): 75.1%
IF frac (TM287/288 E517Q; [10]): 13%
OF frac (TM287/288 E517Q; [10]): 87%
ATPase activity, % of wildtype (Spin-labeled TM287/288; spin-labeled 131^TM288/248^TM288, ATP-Mg): 156* %
ATPase activity, % of wildtype (Spin-labeled TM287/288; spin-labeled 150^TM287/295^TM288, ATP-Mg): 112* %
ATPase activity, % of wildtype (Spin-labeled TM287/288; spin-labeled 231^TM287/304^TM287, ATP-Mg): 146* %
ATPase activity, % of wildtype (Spin-labeled TM287/288; spin-labeled 350^TM287/475^TM288, ATP-Mg): 193* %
ATPase activity, % of wildtype (Spin-labeled TM287/288; spin-labeled 460^TM287/363^TM288, ATP-Mg): 212* %
ATPase turnover rate (TM287/288_E517Q^TM288): 0.022 ATP min^−1
ATPase activity, % of wildtype (MsbA [6]; MsbA 561^MsbA): 90.4%
Turnover per transporter (MsbA [6]; MsbA 561^MsbA): 16.6 min⁻¹
ATPase activity (MsbA [6]; wildtype MsbA): 135 ± 9 nmol Pi/min/mg protein
Turnover per transporter (MsbA [6]; wildtype MsbA): 18.4 min⁻¹
Km (BmrCD [7]; read-out: Km for ATP, BmrCD): 343 ± 24 µM
ATPase activity (BmrCD [7]; [15]): 22.9 ± 0.5 nmol Pi/min/mg protein
Turnover per transporter (BmrCD [7]; [15]): 3.24 min⁻¹
Km (TM287/288 [2]; TM287/288, 25°C): 3.27 ± 0.42 µM
Km (TM287/288 [2]; TM287/288, 50°C): 7.78 ± 1.1 µM
turnover rate (TM287/288 [2]; wildtype TM287/288, ATP-Mg, 25°C): 11 ATP min^−1
ATPase activity (TM287/288 [2]; [16]): 86.1 ± 2.5 nmol Pi/min/mg protein
Turnover per transporter (TM287/288 [2]; [16]): 11.4 min⁻¹
ATPase activity (TM287/288 [2]; [17]): 2141 ± 67 nmol Pi/min/mg protein
Turnover per transporter (TM287/288 [2]; [17]): 284 min⁻¹
IF frac (TM287/288 [3]; [12]): 36.7%
OF frac (TM287/288 [3]; [12]): 63.3%
IF frac (TM287/288 [3]; [13]): 56.8%
OF frac (TM287/288 [3]; [13]): 43.2%
IF frac (TM287/288 [3]; [14]): 25.7%
OF frac (TM287/288 [3]; [14]): 74.3%
ATPase activity (BmrCD_E592Q^BmrD; [18]): 0.633 ± 0.053 nmol Pi/min/mg protein
ATPase activity, % of wildtype (BmrCD_E592Q^BmrD; [18]): 2.76%
Turnover per transporter (BmrCD_E592Q^BmrD; [18]): 0.0896 min⁻¹
turnover rate (BmrCD_E592Q^BmrD; BmrCD carrying the E-to-Q mutation): 0.09 ATP min^−1
